Assay results from patent publication US8158362B2, “Methods of diagnosing susceptibility to myocardial infarction and screening for an LTA4H haplotype” (deCODE Genetics ehf., priority 2005, dated 2012).
Entries after “also recorded” stand apart in the source; their conditions may differ.

How the values were obtained:
[1] = test system: LTB4 produced by ionomycin-activated neutrophils; test: LTB4 production in ionomycin-activated whole blood/neutrophils ex vivo, DG-031 placebo-controlled crossover clinical trial; design: species or system human
Description: (§1) In the short term study, changes in levels of biomarkers that are associated with risk of MI were scored as evidence of changes in the risk of MI.
(§2) Patients (191 subjects) who met the study eligebility criteria were enrolled and randomized into 3 different dose-level groups: (1) 64 patients on 250 mg/day therapy with DG-031 (250 mg q.d.), vs placebo; (2) 64 patients on 500 mg/day therapy with DG-031 (250 mg b.i.d.) vs placebo; and (3) 63 patients on 750 mg/day therapy with DG-031 (250 mg t.i.d.) vs placebo. […] All patients received 3 tablets per day. Treatment periods, 4 weeks in duration each, were separated by a 2-week washout period. The placebo tablets were identical in shape, color, form and taste to the active tablets except that they contained no active drug ingredients. Treatment with DG-031 or placebo was in addition to the subject's standard care, including all medications and treatment plan as prescribed by the subject's cardiologist prior to enrollment. Due to early termination of 19 subjects (primarily related to unavailability due to travel), 11 were replaced prior to enrollment closure. Thus, a total of 191 subjects were enrolled, with 172 completing all 8 visits or 8 patients (4.4%) short of target.
All data were analyzed according to a pre-established analysis plan and by intention-to-treat. Hypotheses were tested at a two-sided nominal significance level of 0.05. Each arm of the study, as well as pooled sets (combining dose levels), was considered for the primary analysis. Each such set is a standard AB/BA cross-over design and in the primary analysis of efficacy, the levels of biomarkers of MI risk at the end of the treatment periods (visits 4 and 7) were used as primary response variables. The difference between DG-031 and placebo treatment was the primary outcome, assessed separately for each of the biomarkers. […]
(§3) Apart from measurements in plasma, LTB4 and MPO were also measured in whole blood preparations ex vivo following ionomycin-activation of leukocytes, using ELISA and mass spectrometry. […]

[2] = test system: myeloperoxidase (MPO) in whole blood; test: MPO production in ionomycin-activated whole blood ex vivo, DG-031 crossover clinical trial; design: species or system human
Description: as §1
as §2, with “Due to early termination of 19 subjects (primarily related to unavailability due to travel), 11 were replaced prior to enrollment closure. Thus, a total of 191 subjects were enrolled, with 172 completing all 8 visits or 8 patients (4.4%) short of target.” left out
(§4) All data were analyzed according to a pre-established analysis plan and by intention-to-treat. […] The difference between DG-031 and placebo treatment was the primary outcome, assessed separately for each of the biomarkers. […]
as §3

urinary leukotriene E4 = test: Urine LTE4, DG-031 crossover clinical trial; assay type: in vivo, human; details: highest dosage of DG-031 (750 mg/day); nominal p=0.00002
Description: as §1
(§5) Patients (191 subjects) who met the study eligebility criteria were enrolled and randomized into 3 different dose-level groups: (1) 64 patients on 250 mg/day therapy with DG-031 (250 mg q.d.), vs placebo; (2) 64 patients on 500 mg/day therapy with DG-031 (250 mg b.i.d.) vs placebo; and (3) 63 patients on 750 mg/day therapy with DG-031 (250 mg t.i.d.) vs placebo. […] All patients received 3 tablets per day. Treatment periods, 4 weeks in duration each, were separated by a 2-week washout period. […]
as §4
(§6) Apart from measurements in plasma, LTB4 and MPO were also measured in whole blood preparations ex vivo following ionomycin-activation of leukocytes, using ELISA and mass spectrometry. […] On the log scale the adjustment was based on a linear model, with coefficients determined empirically at time of blind review. Several tertiary markers were also measured including: IL-6, IL-12p40, TNFα, MMP-9, sICAM, sVCAM, P-selectin, E-selectin, MCP-1 and oxidised LDL.

C-reactive protein (CRP) = test: Serum CRP, DG-031 crossover clinical trial incl. carry-over test; assay type: in vivo, human
Description: as §1, §2
All data were analyzed according to a pre-established analysis plan and by intention-to-treat. Hypotheses were tested at a two-sided nominal significance level of 0.05. Each arm of the study, as well as pooled sets (combining dose levels), was considered for the primary analysis. Each such set is a standard AB/BA cross-over design and in the primary analysis of efficacy, the levels of biomarkers of MI risk at the end of the treatment periods (visits 4 and 7) were used as primary response variables. The difference between DG-031 and placebo treatment was the primary outcome, assessed separately for each of the biomarkers. Treatment effect was tested using a two-sample t-test on the period differences for suitably transformed response variables, under an assumption of normality of the transformed data. We report treatment effect as one half of the observed mean differences in the two-sample t-test, with a 95% CI. No pre-tests for carry-over effect were performed as a part of the primary analysis. Tests for carry-over were done and are reported separately from results of primary analysis. As was prespecified for the primary analysis, a simple Bonferroni-adjustment based on 10 biomarkers for the primary objective for the pooled set of the two highest doses, was used to report the outcome of the primary objective. All p-values reported are nominal.
To cancel out potential seasonal effects, carry-over effects were also studied with two-sample t-tests that compare measurements of the AB (drug/placebo) group with the measurements of the BA (placebo/drug) group. To estimate the effect of the drug at visit 3 for the AB group, (v3−v2), with v3 and v2 denoting, respectively, measurements at visit 3 and visit 2, was used. Similarly (v4−v2) and (v5−v2) were used to estimate effects at visits 4 and 5. For estimating the effect at visit 6, [(v6−v2)+(v3−v2)] was used. Note that v6 from the BA group includes the drug effect after two weeks which cancels the drug effect at visit 3 from the AB group. Similarly, [(v7−v2)+(v4−v2)] was used to estimate the effect at visit 7. […]
as §3

serum amyloid A = test: Serum amyloid A (SAA), DG-031 crossover clinical trial incl. carry-over test; assay type: in vivo, human
Description: as §1
as §2, with “Due to early termination of 19 subjects (primarily related to unavailability due to travel), 11 were replaced prior to enrollment closure. Thus, a total of 191 subjects were enrolled, with 172 completing all 8 visits or 8 patients (4.4%) short of target.” left out
as §4, §3

Lp-PLA2 = test: Lp-PLA2, DG-031 crossover clinical trial; assay type: in vivo, human
Description: as §1, §5, §4, §6

[3] = test system: IL-6, IL-12p40, TNFα, MMP-9, sVCAM, P-selectin, E-selectin, MCP-1 and oxidised LDL; test: Other tertiary markers (IL-6, IL-12p40, TNFα, MMP-9, sVCAM, P-selectin, E-selectin, MCP-1, oxidised LDL), DG-031 crossover clinical trial; assay type: in vivo, human; details: DG-031 vs placebo
Description: as §1, §5, §4, §6

[4] = Safety and adverse events, DG-031 crossover clinical trial; assay type: in vivo, human
Excerpt: All study participants lived in the Reykjavik metropolitan area or its neighboring townships. All study participants were followed by the designated cardiologists at the University Hospital of Iceland, at their outpatient or private clinics, and all subjects had participated in a study on the genetics of MI. After the subject had given informed consent, a medical and medication history was completed, including co-morbidities, concomitant medications and specific details about the subject's cardiovascular history, including current status. All study participants were fasting and had not taken their medications prior to the study visit. Cardiologists examined the patients at all 8 visits and completed the case report forms. All blood was collected and processed immediately after sampling. All blood specimens used for the biomarker studies were processed within 2 hours of blood sampling.
as §2

[5] = 750 mg/day dose; healthy volunteers and patients with asthma (Dahlen et al., Hamilton et al.); cited from earlier work
[6] = differences between visit 2 and 5, 500 and 750 mg/day vs placebo

O=C(O)[C@@H](c1ccc(OCc2ccc3ccccc3n2)cc1)C1CCCC1 [DG-031, (R)-(+)-alpha-cyclopentyl-4-(2-quinolinylmethoxy)-Benzeneacetic acid]
maximum reduction in LTB4 production by ionomycin-activated neutrophils ex vivo ([1]; 750 mg/day DG-031 vs placebo, 4-week treatment, MI patients carrying at-risk FLAP/LTA4 hydrolase haplotypes, nominal p=0.0026): 26%
carry-over effect from treatment phase to placebo phase, LTB4 [1, 6]: No carry over effects were observed
levels of LTB4 produced by ionomycin-activated neutrophils ex vivo (primary efficacy endpoint) ([1]; pooled set of 500 mg and 750 mg arms, nominal p=0.0042, significant after correction for multiple testing): reduces levels of LTB4
maximum reduction in MPO production (whole blood) ([2]; 750 mg/day DG-031 vs placebo, nominal p=0.023): 13%
carry-over effect from treatment phase to placebo phase, MPO [2, 6]: No carry over effects were observed
increase in urine levels of LTE4 (urinary leukotriene E4): 27%
carry-over / persistent effect after discontinuation, CRP (C-reactive protein (CRP); differences between visit 2 and 5, 500 and 750 mg/day vs placebo, p=0.017): evidence of a persistent effect; also recorded: marked carry over effects were observed; also recorded: seems to persists until visit 7
further CRP reduction in subjects already on statin therapy (C-reactive protein (CRP); short term study, LT inhibitor added to statin therapy): 20-30%
reduction of serum levels of CRP (C-reactive protein (CRP); summary of the clinical trial): approximately 25%
reduction of CRP (C-reactive protein (CRP); visit 5 (after 2-week washout), two higher doses, p=0.017): about 25%
level of CRP during treatment (C-reactive protein (CRP); visits 3 (2 weeks on therapy) and 4 (4 weeks on therapy), two higher doses): dropped at visits 3 and 4, but not significantly
carry-over / persistent effect after discontinuation, SAA (serum amyloid A; differences between visit 2 and 5, 500 and 750 mg/day vs placebo, p=0.051): evidence of a persistent effect
reduction of serum levels of SAA (serum amyloid A; summary of the clinical trial): approximately 25%
effect on Lp-PLA2 (Lp-PLA2; 2 lower doses (250 mg/day and 500 mg/day)): not significant
increase in Lp-PLA2 (Lp-PLA2; highest dose of DG-031 (750 mg/day), nominal p=0.0056): 9%
effect on other tertiary markers [3]: no effects were observed
dizziness, number of patients reporting ([4]; active drug (any dose) vs none on placebo, p=0.032): 6 patients
liver transaminases ([4]; active drug vs placebo): no difference was detected
serious adverse events ([4]; between treatment groups or dose arms): no difference in serious adverse events
overall safety and tolerability ([4]; clinical trial, 250-750 mg/day): safe and well tolerated
tolerability in previous phase I-III human studies [5]: well tolerated
